# Laboratory results as given in patent US10711000B2 (Fronthera U.S. Pharmaceuticals LLC, priority 2018, dated 2020).
# Read-outs that look alike come from different tables or passages of the source.
# Biological target: T1, Autotaxin (Homo sapiens, UniProt Q13822)
# T1 construct: from tissue; host or cells: pooled human plasma
# Assay: LPA formation in pooled human plasma (ex vivo autotaxin inhibition)
# Type: biochemical
# Settings: 2 hours incubation
# Experimental: Autotaxin is a plasma phosphodiesterase that converts lysophosphatidylcholine (LPC) into lysophosphatidic acid (LPA), therefore LPA formation was used to evaluate the potency of autotaxin inhibitors. The potency of compound was evaluated ex vivo in pooled human plasma.
# Various concentrations of compound were incubated with plasma for 2 hours, and the LPA 18:2 and 20:4 concentration was measured by LC/MS/MS. To determine the LPA18:2 or 20:4 concentration in study plasma, a 10× calibration standard of LPA 18:2 or 20:4 were prepared by serial dilution in butyl alcohol: 20000, 10000, 5000, 2000, 1000, 500, 200, 100, 50, 20, and 10 ng/mL. 3 μL of calibration standard solution was added into 27.0 μL of blank plasma in 1.5-mL microcentrifuge tubes to generate 1× calibration standards. The 30.0 μL of standards or study plasma was added into 1.5-mL microcentrifuge tubes. 200 μL of butyl alcohol (containing 25.0 ng/mL LPA17:0 for internal control) was added into each 1.5-mL microcentrifuge tube containing study plasma or calibration standards. After vortexing for 1 minute and centrifuging at 10000 rpm for 10 min, 180 μL of supernatant was transferred into a 96-well plate and the LPA18:2 concentration in the plasma was quantitated using LC/MS/MS together with standards. Briefly, 8 μL of the solutions were injected for LC-MS/MS analysis using an ACQUITY UPLC BEH C18 column (2.1×50 mm, 1.7 μm) with mobile phase A [20 mM NH4OAC in water (0.1% FA)] and phase B [5 mM NH4OAC in water/0.2% FA in ACN=5:95]. Mass spectrometer parameters optimization for LPA18:2 were performed by Deprotonated molecular ion at m/z 433.2 ([M−H]^−) for LPA18:2, 457.2 for LPA20:4 and abundant product ion at m/z 152.8 for both LPA18:2 and LPA20:4 were obtained. Quantitative data were acquired in multiple reaction monitoring (MRM) negative electrospray ionization mode
# The inhibition rate of LPA formation was determined by comparing the levels of LPA in treated and non-treated plasma. The data was plotted against the corresponding concentration of compound and the IC50 was calculated through non-linear regression fitting.
# [1] = LPA 18:2 by LC/MS/MS, read-out: LPA formation (18:2) (IC50)
# [2] = LPA 20:4 by LC/MS/MS, read-out: LPA formation (20:4) (IC50)
SMILES,IC50 [1] [nM],IC50 [2] [nM]
"Cc1cc(N2CC(C#N)C2)cc2c(N(C)c3nc(-c4ccc(F)cc4)c(C#N)s3)c(C3CC3)nn12 [Example 88, 2-[[5-(3-cyanoazetidin-1-yl)-2-cyclopropyl-7-methyl-pyrazolo[1,5-a]pyridin-3-yl]-methyl-amino]-4-(4-fluorophenyl)thiazole-5-carbonitrile]",> 1000,> 1000
"CCc1nn2c(C)cc(N3CC4(CN(C(=O)C5(O)CC5)C4)C3)cc2c1N(C)c1nc(-c2ccc(F)cc2)c(C#N)s1 [Example 61, 2-((2-ethyl-5-(6-(1-hydroxycyclopropane-1-carbonyl)-2,6-diazaspiro[3.3]heptan-2-yl)-7-methylpyrazolo[1,5-a]pyridin-3-yl)(methyl)amino)-4-(4-fluorophenyl)thiazole-5-carbonitrile]",100 to 500,100 to 500
"CCc1nn2c(C)cc(N3CCC4(CN(C(=O)CO)C4)C3)cc2c1N(C)c1nc(-c2ccc(F)cc2)c(C#N)s1 [Example 52, 2-((2-ethyl-5-(2-(2-hydroxyacetyl)-2,6-diazaspiro[3.4]octan-6-yl)-7-methylpyrazolo[1,5-a]pyridin-3-yl)(methyl)amino)-4-(4-fluorophenyl)thiazole-5-carbonitrile]",100 to 500,100 to 500
"Cc1cc(N2CCC(N3CC(O)C3)CC2)cc2c(N(C)c3nc(-c4ccc(F)cc4)c(C#N)s3)c(C3CC3)nn12 [Example 93, 2-((2-cyclopropyl-5-(4-(3-hydroxyazetidin-1-yl)piperidin-1-yl)-7-methylpyrazolo[1,5-a]pyridin-3-yl)(methyl)amino)-4-(4-fluorophenyl)thiazole-5-carbonitrile]",100 to 500,100 to 500
"CCc1nn2c(C)cc(N3CCC4(CN(C[C@H](O)CO)C4)C3)cc2c1N(C)c1nc(-c2ccc(F)cc2)c(C#N)s1 [Example 68, (S)-2-((5-(2-(2,3-dihydroxypropyl)-2,6-diazaspiro[3.4]octan-6-yl)-2-ethyl-7-methylpyrazolo[1,5-a]pyridin-3-yl)(methyl)amino)-4-(4-fluorophenyl)thiazole-5-carbonitrile]",100 to 500,100 to 500
"CCn1nc2nc(C)c(N3CC4(CN(C(=O)C(C)(C)O)C4)C3)cc2c1N(C)c1nc(-c2ccc(F)cc2)c(C#N)s1 [Compound 120, 2-((2-ethyl-5-(6-(2-hydroxy-2-methylpropanoyl)-2,6-diazaspiro[3.3]heptan-2-yl)-6-methyl-2H-pyrazolo[3,4-b]pyridin-3-yl)(methyl)amino)-4-(4-fluorophenyl)thiazole-5-carbonitrile]",≤ 100,≤ 100
"CCc1nn2c(C)cc(N3CCN(CC(=O)N4CC(O)C4)CC3)nc2c1N(C)c1nc(-c2ccc(F)cc2)c(C#N)s1 [Example 95, 2-((2-ethyl-5-(4-(2-(3-hydroxyazetidin-1-yl)-2-oxoethyl)piperazin-1-yl)-7-methylpyrazolo[1,5-a]pyrimidin-3-yl)(methyl)amino)-4-(4-fluorophenyl)thiazole-5-carbonitrile]",> 1000,> 1000
"Cc1cc(N2CCN(C[C@@H](O)CO)CC2)cc2c(N(C)c3nc(-c4ccc(F)cc4)c(C#N)s3)c(C3CC3)nn12 [Example 82, (R)-2-((2-cyclopropyl-5-(4-(2,3-dihydroxypropyl)piperazin-1-yl)-7-methylpyrazolo[1,5-a]pyridin-3-yl)(methyl)amino)-4-(4-fluorophenyl)thiazole-5-carbonitrile]",100 to 500,100 to 500

# Other lines, results leading:
IC50 [1] [nM],IC50 [2] [nM],SMILES
≤ 100,≤ 100,"CCc1nn2ccc(N3CC4(CN(C(=O)[C@H]5CCOC5)C4)C3)cc2c1N(C)c1nc(-c2ccc(F)cc2)c(C#N)s1 [Example 10, (S)-2-((2-ethyl-5-(6-(tetrahydrofuran-3-carbonyl)-2,6-diazaspiro[3.3]heptan-2-yl)pyrazolo[1,5-a]pyridin-3-yl)(methyl)amino)-4-(4-fluorophenyl)thiazole-5-carbonitrile]"
≤ 100,≤ 100,"CCc1nn2ccc(N3CC4(CN(C(=O)N5CCN(C)CC5)C4)C3)cc2c1N(C)c1nc(-c2ccc(F)cc2)c(C#N)s1 [Example 14, 2-((2-ethyl-5-(6-(4-methylpiperazine-1-carbonyl)-2,6-diazaspiro[3.3]heptan-2-yl)pyrazolo[1,5-a]pyridin-3-yl)(methyl)amino)-4-(4-fluorophenyl)thiazole-5-carbonitrile]"
≤ 100,≤ 100,"CCc1nn2cc(C)c(N3CC4(CN(C(=O)C(O)CO)C4)C3)cc2c1N(C)c1nc(-c2ccc(F)cc2)c(C#N)s1 (stereo not shown) [Example 99, 2-((5-(6-(2,3-dihydroxypropanoyl)-2,6-diazaspiro[3.3]heptan-2-yl)-2-ethyl-6-methylpyrazolo[1,5-a]pyridin-3-yl)(methyl)amino)-4-(4-fluorophenyl)thiazole-5-carbonitrile]"
≤ 100,≤ 100,"CCc1nn2ccc(N3CCN(CC(=O)N4CC(O)C4)CC3)cc2c1N(C)c1nc(-c2ccc(F)cc2)c(C#N)s1 [Example 1, 2-((2-ethyl-5-(4-(2-(3-hydroxyazetidin-1-yl)-2-oxoethyl)piperazin-1-yl)pyrazolo[1,5-a]pyridin-3-yl)(methyl)amino)-4-(4-fluorophenyl)thiazole-5-carbonitrile]"
≤ 100,≤ 100,"CCc1nn2cc(F)c(N3CCC4(CC3)CN(C(=O)N3CC(O)C3)C4)cc2c1N(C)c1nc(-c2ccc(F)cc2)c(C#N)s1 [Example 110, 2-((2-ethyl-6-fluoro-5-(2-(3-hydroxyazetidine-1-carbonyl)-2,7-diazaspiro[3.5]nonan-7-yl)pyrazolo[1,5-a]pyridin-3-yl)(methyl)amino)-4-(4-fluorophenyl)thiazole-5-carbonitrile]"
≤ 100,≤ 100,"CCc1nn2ccc(N3CCC4(CN(C(=O)N5CC(O)C5)C4)C3)cc2c1N(C)c1nc(-c2ccc(F)cc2)c(C#N)s1 [Example 16, 2-((2-ethyl-5-(2-(3-hydroxyazetidine-1-carbonyl)-2,6-diazaspiro[3.4]octan-6-yl)pyrazolo[1,5-a]pyridin-3-yl)(methyl)amino)-4-(4-fluorophenyl)thiazole-5-carbonitrile]"
≤ 100,100 to 500,"CCc1nn2c(C)cc(N3CC4(CN(C(=O)C5CCN(C)CC5)C4)C3)cc2c1N(C)c1nc(-c2ccc(F)cc2)c(C#N)s1 [Example 33, 2-((2-ethyl-7-methyl-5-(6-(1-methylpiperidine-4-carbonyl)-2,6-diazaspiro[3.3]heptan-2-yl)pyrazolo[1,5-a]pyridin-3-yl)(methyl)amino)-4-(4-fluorophenyl)thiazole-5-carbonitrile]"
≤ 100,≤ 100,"CCc1nn2ccc(N3CC4(CN(C(=O)N5CC(O)C5)C4)C3)cc2c1N(C)c1nc(-c2ccc(F)cc2)c(C#N)s1 [Example 11, 2-((2-ethyl-5-(6-(3-hydroxyazetidine-1-carbonyl)-2,6-diazaspiro[3.3]heptan-2-yl)pyrazolo[1,5-a]pyridin-3-yl)(methyl)amino)-4-(4-fluorophenyl)thiazole-5-carbonitrile]"
≤ 100,≤ 100,"CCc1nn2cc(F)c(N3CCC4(CN(C(=O)N5CC(O)C5)C4)C3)cc2c1N(C)c1nc(-c2ccc(F)cc2)c(C#N)s1 [Example 111, 2-((2-ethyl-6-fluoro-5-(2-(3-hydroxyazetidine-1-carbonyl)-2,6-diazaspiro[3.4]octan-6-yl)pyrazolo[1,5-a]pyridin-3-yl)(methyl)amino)-4-(4-fluorophenyl)thiazole-5-carbonitrile]"
